Results on two compounds are retold here after patent US20250228814A1, “COMBINATION THERAPIES FOR THE TREATMENT OF VIRAL INFECTIONS” (Flagship Pioneering Innovations VI, LLC, priority 2022, published 2025).

The test system of data set [1] is SARS-CoV-2. The conditions noted are these: for Cell viability: ginkgetin 0 μM, 72 h, normalized to remdesivir 5 μM alone.
The test system of data set [2] is SARS-CoV-2. Description: microbe, parasite or virus in culture.
Data set [3] relates to SARS-CoV-2 virus [B.1.351]. The class given is in vivo, mice. The conditions noted are these: in words.
Data set [4] concerns SARS-CoV-2. The class given is cell-based. The conditions noted are these: remdesivir alone, dose-dependent (FIG. 1).
Setting [5] is: Severe acute respiratory syndrome coronavirus 2, Vero C1008, 72 h, read-out: Cell viability.
Where [6] appears, read: Severe acute respiratory syndrome coronavirus 2, Vero C1008, read-out: host cell viability.

Where two headings read alike, the source gives them in different places.

With `COc1cc(O)c2c(=O)cc(-c3ccc(OC)c(-c4c(O)cc(O)c5c(=O)cc(-c6ccc(O)cc6)oc45)c3)oc2c1` [Ginkgetin], the viability with SARS-CoV-2 [1] (1.5625-6.25 μM of ginkgetin alone) is given as 18-24%. For the same compound, the host cell viability entry in the data set with SARS-CoV-2 [1] (ginkgetin (25-50 μM) alone, in words) was “modest improvements in host cell viability”. Further, in the data set on SARS-CoV-2 [2] (setting [5]), the viability at 1.563 µM was 18.4%, the viability at 3.125 µM came out at 17.1%, the viability at 6.25 µM was 24.5% and the viability at 12.5 µM was determined as 46.5%. In the data set on SARS-CoV-2 [2] (setting [5]), the viability at 25 µM came to 42.6%, the viability at 50 µM came to 32.3% and the viability at 100 µM came to 40.4%. Besides, the viability at 100 µM with SARS-CoV-2 [2] (setting [6]) is not above 40%.
As for `CCC(CC)COC(=O)[C@H](C)N[P@](=O)(OC[C@H]1O[C@@](C#N)(c2ccc3c(N)ncnn23)[C@H](O)[C@@H]1O)Oc1ccccc1` [Remdesivir], the Cell viability is given as 22.2% in the data set on SARS-CoV-2 [1] (remdesivir 0.3125 μM), 23.2% in the data set with SARS-CoV-2 [1] (remdesivir 0.625 μM), 28.1% in the data set with SARS-CoV-2 [1] (remdesivir 1.25 μM) and 37.6% with SARS-CoV-2 [1] (remdesivir 2.5 μM). Besides, the “host cell viability of SARS-CoV-2-infected Vero E6 cells” value with SARS-CoV-2 [1] (remdesivir (5 μM) alone, in words) is “dose-dependently improved host cell viability”. The “infectious titers in lung” value in data set [3] (remdesivir 25 mg/kg intraperitoneally daily, day 4 post infection) was “strongest antiviral effect in reducing infectious titer”; in data set [3] (remdesivir 5, 10 or 25 mg/kg intraperitoneally daily from day 1 post infection, day 4 post infection (FIG. 2)) it was “dose-dependent effect on reducing infectious titers”. Besides, the “viral titers of SARS-CoV-2” value in the data set with SARS-CoV-2 [4] is given as “zero”. Also, in the data set with SARS-CoV-2 [2] (setting [5]), the viability at 5 µM stood at 100%. The viability at 1.25 µM in the data set with SARS-CoV-2 [2] (setting [6]) was 29%. The viability at 2.5 µM in the data set with SARS-CoV-2 [2] (setting [6]) worked out at 39%.

One may read the viability as the share of living cells, or the viability signal relative to a control.
